# Results taken from publication PMC5598522 (Toxicology Reports, 2014).
# Test: Quantitative whole body autoradiography
# Format: in vivo, rat
# Conditions: male rat, [3H] Ticagrelor 3 mg/kg
smiles,measurement,setting,value
CCCSc1nc(N[C@@H]2C[C@H]2c2ccc(F)c(F)c2)c2nnn([C@@H]3C[C@H](OCCO)[C@@H](O)[C@H]3O)c2n1 [Ticagrelor],Adrenal gland radioactivity,5 min,11.35 μg equivalent/g
same,"Adrenal gland radioactivity, fold of blood value",5 min,5.33 fold of blood value
same,Blood (LSC) radioactivity,5 min,2.131 μg equivalent/g
same,Brain radioactivity,5 min,0.05 μg equivalent/g
same,"Brain radioactivity, fold of blood value",5 min,0.02 fold of blood value
same,Brown fat radioactivity,5 min,1.35 μg equivalent/g
same,"Brown fat radioactivity, fold of blood value",5 min,0.63 fold of blood value
same,Eye radioactivity,5 min,0.50 μg equivalent/g
same,"Eye radioactivity, fold of blood value",5 min,0.23 fold of blood value
same,Heart radioactivity,5 min,9.15 μg equivalent/g
same,"Heart radioactivity, fold of blood value",5 min,4.29 fold of blood value
same,Kidney radioactivity,5 min,10.62 μg equivalent/g
same,"Kidney radioactivity, fold of blood value",5 min,4.98 fold of blood value
same,Liver radioactivity,5 min,16.11 μg equivalent/g
same,"Liver radioactivity, fold of blood value",5 min,7.56 fold of blood value
same,Lung radioactivity,5 min,7.31 μg equivalent/g
same,"Lung radioactivity, fold of blood value",5 min,3.43 fold of blood value
same,Pancreas radioactivity,5 min,7.35 μg equivalent/g
same,"Pancreas radioactivity, fold of blood value",5 min,3.45 fold of blood value
same,Pituitary gland radioactivity,5 min,8.03 μg equivalent/g
same,"Pituitary gland radioactivity, fold of blood value",5 min,3.77 fold of blood value
same,Salivary gland radioactivity,5 min,3.66 μg equivalent/g
same,"Salivary gland radioactivity, fold of blood value",5 min,1.72 fold of blood value
same,Skeletal muscle radioactivity,5 min,3.15 μg equivalent/g
same,"Skeletal muscle radioactivity, fold of blood value",5 min,1.48 fold of blood value
same,Spinal cord radioactivity,5 min,0.05 μg equivalent/g
same,"Spinal cord radioactivity, fold of blood value",5 min,0.02 fold of blood value
same,Spleen radioactivity,5 min,4.86 μg equivalent/g
same,"Spleen radioactivity, fold of blood value",5 min,2.28 fold of blood value
same,Stomach wall radioactivity,5 min,7.11 μg equivalent/g
same,"Stomach wall radioactivity, fold of blood value",5 min,3.34 fold of blood value
same,Thymus radioactivity,5 min,0.99 μg equivalent/g
same,"Thymus radioactivity, fold of blood value",5 min,0.46 fold of blood value
same,Thyroid gland radioactivity,5 min,7.84 μg equivalent/g
same,"Thyroid gland radioactivity, fold of blood value",5 min,3.68 fold of blood value
same,Adrenal gland radioactivity,0.5 h,5.26 μg equivalent/g
same,"Adrenal gland radioactivity, fold of blood value",0.5 h,5.16 fold of blood value
same,Blood (LSC) radioactivity,0.5 h,1.02 μg equivalent/g
same,Brain radioactivity,0.5 h,0.04/0.04 μg equivalent/g
same,"Brain radioactivity, fold of blood value",0.5 h,0.04/0.04 fold of blood value
same,Brown fat radioactivity,0.5 h,0.95 μg equivalent/g
same,"Brown fat radioactivity, fold of blood value",0.5 h,0.93 fold of blood value
same,Eye radioactivity,0.5 h,0.04/0.04 μg equivalent/g
same,"Eye radioactivity, fold of blood value",0.5 h,0.04/0.04 fold of blood value
same,Heart radioactivity,0.5 h,4.94 μg equivalent/g
same,"Heart radioactivity, fold of blood value",0.5 h,4.84 fold of blood value
same,Kidney radioactivity,0.5 h,6.77 μg equivalent/g
same,"Kidney radioactivity, fold of blood value",0.5 h,6.64 fold of blood value
same,Liver radioactivity,0.5 h,8.44 μg equivalent/g
same,"Liver radioactivity, fold of blood value",0.5 h,8.27 fold of blood value
same,Lung radioactivity,0.5 h,3.90 μg equivalent/g
same,"Lung radioactivity, fold of blood value",0.5 h,3.82 fold of blood value
same,Pancreas radioactivity,0.5 h,7.83 μg equivalent/g
same,"Pancreas radioactivity, fold of blood value",0.5 h,7.68 fold of blood value
same,Pituitary gland radioactivity,0.5 h,7.03 μg equivalent/g
same,"Pituitary gland radioactivity, fold of blood value",0.5 h,6.89 fold of blood value
same,Salivary gland radioactivity,0.5 h,5.57 μg equivalent/g
same,"Salivary gland radioactivity, fold of blood value",0.5 h,5.46 fold of blood value
same,Skeletal muscle radioactivity,0.5 h,3.26 μg equivalent/g
same,"Skeletal muscle radioactivity, fold of blood value",0.5 h,3.20 fold of blood value
same,Spinal cord radioactivity,0.5 h,0.04/0.04 μg equivalent/g
same,"Spinal cord radioactivity, fold of blood value",0.5 h,0.04/0.04 fold of blood value
same,Spleen radioactivity,0.5 h,3.81 μg equivalent/g
same,"Spleen radioactivity, fold of blood value",0.5 h,3.74 fold of blood value
same,Stomach wall radioactivity,0.5 h,7.17 μg equivalent/g
same,"Stomach wall radioactivity, fold of blood value",0.5 h,7.03 fold of blood value
same,Thymus radioactivity,0.5 h,1.28 μg equivalent/g
same,"Thymus radioactivity, fold of blood value",0.5 h,1.25 fold of blood value
same,Thyroid gland radioactivity,0.5 h,3.85 μg equivalent/g
same,"Thyroid gland radioactivity, fold of blood value",0.5 h,3.77 fold of blood value
same,Adrenal gland radioactivity,2 h,1.19 μg equivalent/g
same,"Adrenal gland radioactivity, fold of blood value",2 h,2.57 fold of blood value
same,Blood (LSC) radioactivity,2 h,0.463 μg equivalent/g
same,Brain radioactivity,2 h,0.02 μg equivalent/g
same,"Brain radioactivity, fold of blood value",2 h,0.04 fold of blood value
same,Brown fat radioactivity,2 h,0.46 μg equivalent/g
same,"Brown fat radioactivity, fold of blood value",2 h,0.99 fold of blood value
same,Eye radioactivity,2 h,0.01 μg equivalent/g
same,"Eye radioactivity, fold of blood value",2 h,0.02 fold of blood value
same,Heart radioactivity,2 h,1.73 μg equivalent/g
same,"Heart radioactivity, fold of blood value",2 h,3.74 fold of blood value
same,Kidney radioactivity,2 h,2.22 μg equivalent/g
same,"Kidney radioactivity, fold of blood value",2 h,4.79 fold of blood value
